#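 Values below derive from 48-hour exposures of cells grown in 96-well plates, with endpoints linearly interpolated between the two concentrations bracketing the appropriate inhibition level. TGI marks complete inhibition of growth.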
# Legend:
# Test in all cases: NCI anticancer screen, dose series, 48 h
# SN12C renal = system: SN12C renal
# OVCAR-4 ovarian = system: OVCAR-4 ovarian
# LOX IMVI melanoma = system: LOX IMVI melanoma
# NCI-H522 lung = system: NCI-H522 lung
structure (smiles),measurement,setting,value
N#C[C@@]12CCCC(=O)[C@@H]1[C@H]1CCC[C@H]12,TGI,SN12C renal,35.1 µM
same,TGI,OVCAR-4 ovarian,58.6 µM
same,TGI,LOX IMVI melanoma,31 µM
CC1(C)N=C(/C=N/O)C(C)(C)N1O,TGI,NCI-H522 lung,> 100 µM
same,TGI,SN12C renal,> 100 µM
same,TGI,OVCAR-4 ovarian,> 100 µM
same,TGI,LOX IMVI melanoma,> 100 µM
CSc1ccc(/C=C2\N=C(c3ccccc3)N(c3nc4c(Cl)cc(Cl)cc4s3)C2=O)cc1,TGI,SN12C renal,56.3 µM
same,TGI,OVCAR-4 ovarian,58.4 µM
same,TGI,LOX IMVI melanoma,82.1 µM
Cc1ccc(Nc2sc(C)cc2C#N)c([N+](=O)[O-])c1,TGI,NCI-H522 lung,> 100 µM
same,TGI,SN12C renal,> 100 µM
same,TGI,OVCAR-4 ovarian,> 100 µM
CN(C)CCNC(=O)c1ccc(NCCCN(C)CCCNc2ccc(C(=O)NCCN(C)C)c3[nH]c4ccc([N+](=O)[O-])cc4c(=O)c23)c2c(=O)c3cc([N+](=O)[O-])ccc3[nH]c12,TGI,SN12C renal,0.668 µM
same,TGI,OVCAR-4 ovarian,1.55 µM
same,TGI,LOX IMVI melanoma,0.206 µM
CC1=C(C(=O)NCC(C)O)CC(C(=O)NCC(C)O)=C(C)N1 (stereo not drawn),TGI,NCI-H522 lung,> 100 µM
same,TGI,SN12C renal,> 100 µM
same,TGI,OVCAR-4 ovarian,> 100 µM
same,TGI,LOX IMVI melanoma,> 100 µM
CCN(CC)CCSc1nc2c(c(=N)n1-c1ccccc1)c(=S)n(-c1ccccc1)c(=S)n2-c1ccccc1,TGI,SN12C renal,3.29 µM
same,TGI,OVCAR-4 ovarian,7.87 µM
same,TGI,LOX IMVI melanoma,3.34 µM
Cc1ccc(S(=O)(=O)/N=C(\[O-])C2=C(c3ccccc3)NN(C)c3nc4cccc[n+]4nc32)cc1,TGI,NCI-H522 lung,> 100 µM
same,TGI,SN12C renal,> 100 µM
same,TGI,OVCAR-4 ovarian,> 100 µM
same,TGI,LOX IMVI melanoma,> 100 µM
O=C(N/N=C\c1ccc([N+](=O)[O-])cc1)Nc1cccc2ccccc12,TGI,NCI-H522 lung,> 100 µM
same,TGI,SN12C renal,> 100 µM
same,TGI,OVCAR-4 ovarian,> 100 µM
same,TGI,LOX IMVI melanoma,> 62.2 µM
CCc1n[nH]c(=O)n1NC(=O)c1ccccc1C(=O)O,TGI,NCI-H522 lung,> 100 µM
same,TGI,SN12C renal,> 100 µM
same,TGI,OVCAR-4 ovarian,> 100 µM
same,TGI,LOX IMVI melanoma,> 100 µM
CCn1c(-c2ccc(C)cc2)cs/c1=N\C(P(=O)(O)O)P(=O)(O)O,TGI,NCI-H522 lung,> 100 µM
same,TGI,LOX IMVI melanoma,> 100 µM
COc1cc(C2SCC(=O)N2c2ccc(Cl)cc2)cc(I)c1O (stereo not drawn),TGI,NCI-H522 lung,> 100 µM
same,TGI,SN12C renal,> 100 µM
same,TGI,OVCAR-4 ovarian,> 67.5 µM
same,TGI,LOX IMVI melanoma,> 100 µM
COc1cc2c(cc1OC)C(Cc1ccccc1CCCl)=NCC2,TGI,NCI-H522 lung,> 100 µM
same,TGI,SN12C renal,> 100 µM
same,TGI,OVCAR-4 ovarian,> 100 µM
O=S(=O)(O)c1ccc2c(N=Nc3ccccc3Cl)c(O)ccc2c1,TGI,NCI-H522 lung,> 100 µM
same,TGI,SN12C renal,> 100 µM
same,TGI,OVCAR-4 ovarian,> 100 µM
same,TGI,LOX IMVI melanoma,> 100 µM
O=C1OC[C@@H]2Cc3c([nH]c4ccccc34)[C@@H](c3cc(O)c(O)c(O)c3)N12,TGI,NCI-H522 lung,22.8 µM
same,TGI,SN12C renal,98.9 µM
same,TGI,OVCAR-4 ovarian,26.1 µM
O=C1CCCCC[C@]12SC[C@H]1CON=C12,TGI,NCI-H522 lung,69.6 µM
same,TGI,SN12C renal,57.6 µM
same,TGI,OVCAR-4 ovarian,> 100 µM
same,TGI,LOX IMVI melanoma,> 100 µM
COc1ccc2c(c1)CCCN1CCc3cc(OC)c(OC)cc3C21 (stereo not drawn),TGI,SN12C renal,> 100 µM
same,TGI,LOX IMVI melanoma,> 100 µM
COc1cc(C(=O)Nc2c3ccccc3nc3ccccc23)cc(OC)c1OC,TGI,NCI-H522 lung,> 100 µM
same,TGI,SN12C renal,> 100 µM
same,TGI,OVCAR-4 ovarian,> 100 µM
same,TGI,LOX IMVI melanoma,> 100 µM
OCCN=C1c2ccccc2C2C(c3ccccc31)C1c3ccccc3C(=NCCO)c3ccccc3C21 (stereo not drawn),TGI,SN12C renal,55.8 µM
same,TGI,OVCAR-4 ovarian,60.2 µM
same,TGI,LOX IMVI melanoma,52.6 µM
N=c1oc2ccc(Cl)cc2cc1C(=O)NCc1ccccc1,TGI,NCI-H522 lung,> 100 µM
same,TGI,SN12C renal,> 100 µM
same,TGI,OVCAR-4 ovarian,> 100 µM
same,TGI,LOX IMVI melanoma,> 100 µM
CCCC#CC(O)(C(=O)OC1CCN(C)CC1)C1CCCCC1 (stereo not drawn),TGI,SN12C renal,> 100 µM
same,TGI,OVCAR-4 ovarian,> 100 µM
same,TGI,LOX IMVI melanoma,> 100 µM
CC(=O)c1c(-c2ccccc2)c(-c2ccc(OCCN(C)C)cc2)n2ccccc12,TGI,NCI-H522 lung,27.9 µM
same,TGI,SN12C renal,29.4 µM
same,TGI,OVCAR-4 ovarian,> 100 µM
same,TGI,LOX IMVI melanoma,29.1 µM
NCCCc1c(-c2ccccc2)nc(N)[nH]c1=O,TGI,NCI-H522 lung,> 100 µM
same,TGI,SN12C renal,> 100 µM
same,TGI,OVCAR-4 ovarian,> 100 µM
same,TGI,LOX IMVI melanoma,> 100 µM
CC(NC(=O)C(N)CC(=O)O)NC(=O)N1CCOCC1 (stereo not drawn),TGI,NCI-H522 lung,> 100 µM
same,TGI,SN12C renal,> 100 µM
same,TGI,OVCAR-4 ovarian,> 100 µM
same,TGI,LOX IMVI melanoma,> 100 µM
CC(C)CC1[C@@H](OCc2ccccc2)COS(=O)(=O)N1Cc1ccccc1 (stereo partly drawn),TGI,NCI-H522 lung,> 100 µM
same,TGI,SN12C renal,> 100 µM
same,TGI,OVCAR-4 ovarian,> 100 µM
same,TGI,LOX IMVI melanoma,> 100 µM
Cc1cc(O)c(/C=N/c2nc(-c3cccc([N+](=O)[O-])c3)cs2)c(=O)o1,TGI,SN12C renal,> 100 µM
same,TGI,OVCAR-4 ovarian,> 100 µM
same,TGI,LOX IMVI melanoma,> 100 µM
COc1ccc(C2SCC(=O)N2NC(=O)C(C)Oc2ccccc2Cl)cc1 (stereo not drawn),TGI,NCI-H522 lung,> 100 µM
same,TGI,SN12C renal,> 100 µM
same,TGI,OVCAR-4 ovarian,> 100 µM
same,TGI,LOX IMVI melanoma,62 µM
CC1=C(C(=O)Nc2ccccc2)C(c2ccc(C)o2)C(C#N)=C(SCc2ccccc2)N1 (stereo not drawn),TGI,NCI-H522 lung,> 100 µM
same,TGI,SN12C renal,> 100 µM
same,TGI,OVCAR-4 ovarian,> 100 µM
same,TGI,LOX IMVI melanoma,> 100 µM
O=C1/C(=C/c2cccs2)NC(=S)N1CN1CCOCC1,TGI,SN12C renal,> 100 µM
same,TGI,LOX IMVI melanoma,> 100 µM
Cc1ccc(O)c(-c2csc(NCN3CCN(CNc4nc(-c5cc(C)ccc5O)cs4)CC3)n2)c1,TGI,NCI-H522 lung,> 100 µM
same,TGI,SN12C renal,> 100 µM
same,TGI,OVCAR-4 ovarian,> 100 µM
same,TGI,LOX IMVI melanoma,> 100 µM
Cc1ccc2cccc3c2c1CC1(C3=O)S(=O)(=O)OCCOS1(=O)=O,TGI,NCI-H522 lung,> 100 µM
same,TGI,SN12C renal,> 100 µM
same,TGI,OVCAR-4 ovarian,> 100 µM
same,TGI,LOX IMVI melanoma,> 100 µM
O=C(NCCCCNCCCNC(=O)c1cc(-c2ccccc2)nc2ccccc12)c1cc(-c2ccccc2)nc2ccccc12,TGI,NCI-H522 lung,3.08 µM
same,TGI,SN12C renal,3.38 µM
CCOC(=O)c1cc(=O)oc2c1N(C)c1ncccc1N2,TGI,SN12C renal,> 100 µM
same,TGI,OVCAR-4 ovarian,> 100 µM
same,TGI,LOX IMVI melanoma,> 100 µM
CCOC(=O)/C=C(\N=P(c1ccccc1)(c1ccccc1)c1ccccc1)C(F)(F)C(F)(F)C(F)(F)C(F)(F)C(F)(F)F,TGI,SN12C renal,> 100 µM
same,TGI,OVCAR-4 ovarian,> 100 µM
same,TGI,LOX IMVI melanoma,> 100 µM
COC(OC)(c1ccccc1)C(I)I,TGI,NCI-H522 lung,6.98 µM
same,TGI,SN12C renal,50.4 µM
same,TGI,OVCAR-4 ovarian,27.4 µM
same,TGI,LOX IMVI melanoma,32.4 µM
CC(=O)N1N=C(N)CC1=O,TGI,NCI-H522 lung,> 100 µM
same,TGI,SN12C renal,> 100 µM
same,TGI,OVCAR-4 ovarian,> 100 µM
same,TGI,LOX IMVI melanoma,> 100 µM
CC(C)(C)OC(=O)NC(Cc1ccc(OCc2ccccc2)cn1)C(=O)N1CCSCC1 (stereo not drawn),TGI,NCI-H522 lung,> 100 µM
same,TGI,SN12C renal,> 100 µM
same,TGI,LOX IMVI melanoma,> 100 µM
COc1ccccc1N=N/C(=N/NC(=O)c1ccc(C)cc1)c1ccc(N(CCC#N)CCC#N)cc1OC,TGI,NCI-H522 lung,79 µM
same,TGI,SN12C renal,72.4 µM
same,TGI,OVCAR-4 ovarian,> 100 µM
same,TGI,LOX IMVI melanoma,> 100 µM
O=CC1OC(=O)c2cc(O)c(O)c(O)c2-c2c(cc(O)c(O)c2O)C(=O)OC1C(O)C(O)CO (stereo not drawn),TGI,NCI-H522 lung,> 100 µM
same,TGI,SN12C renal,> 100 µM
same,TGI,OVCAR-4 ovarian,37.8 µM
same,TGI,LOX IMVI melanoma,31.4 µM
CSc1nc(O)c(/C=C2\C=Nc3ccccc32)[nH]1,TGI,SN12C renal,> 100 µM
same,TGI,OVCAR-4 ovarian,> 100 µM
same,TGI,LOX IMVI melanoma,> 100 µM
